{"source": "paper PMC6688997", "about": "(Nature Communications, 2019)", "experiment_in_all_cases": "Kinase assay, 1 mM ATP", "type_in_all_cases": "biochemical", "key": {"AurB": {"molecular_target": "AurB (Homo sapiens, UniProt Q96GD4)", "experimental": "(§1) An off-chip mobility shift assay was performed by Carna Biosciences, Inc. (Kobe, Japan), according to their product instructions. […] The IC50 values were estimated according to the four-parameter logistic model."}, "BLK": {"molecular_target": "BLK (Homo sapiens, UniProt P51451)", "sequence (P51451 whole entry)": "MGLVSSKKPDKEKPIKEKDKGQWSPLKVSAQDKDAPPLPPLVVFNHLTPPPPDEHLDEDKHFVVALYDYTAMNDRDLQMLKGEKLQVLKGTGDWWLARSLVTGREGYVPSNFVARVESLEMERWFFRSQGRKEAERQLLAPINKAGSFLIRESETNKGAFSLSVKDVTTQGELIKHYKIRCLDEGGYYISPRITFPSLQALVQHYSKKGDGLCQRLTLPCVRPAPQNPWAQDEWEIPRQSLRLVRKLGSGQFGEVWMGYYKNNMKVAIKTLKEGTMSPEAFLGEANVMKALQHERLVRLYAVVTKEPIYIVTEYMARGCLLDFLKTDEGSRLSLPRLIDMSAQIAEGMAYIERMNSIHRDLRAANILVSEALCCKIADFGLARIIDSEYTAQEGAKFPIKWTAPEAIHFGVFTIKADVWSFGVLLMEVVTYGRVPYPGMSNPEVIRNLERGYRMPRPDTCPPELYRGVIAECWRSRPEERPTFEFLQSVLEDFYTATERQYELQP", "experimental": "as §1"}, "BRSK1": {"molecular_target": "BRSK1 (Homo sapiens, UniProt Q8TDC3)", "experimental": "as §1"}, "CDK2/CycA2": {"molecular_target": "CDK2/CycA2 (Homo sapiens, UniProt P24941)", "experimental": "as §1"}, "CDK4/CycD3": {"molecular_target": "CDK4/CycD3 (Homo sapiens, UniProt P11802)", "experimental": "as §1"}, "CDK7/CycH/MAT1": {"molecular_target": "CDK7/CycH/MAT1 (Homo sapiens, UniProt P50613)", "experimental": "as §1"}, "CK1α": {"molecular_target": "CK1α (Homo sapiens, UniProt P48729)", "experimental": "as §1"}, "CK2α1/β": {"molecular_target": "CK2α1/β (Homo sapiens, UniProt P68400)", "experimental": "as §1"}, "CLK2": {"molecular_target": "CLK2 (Homo sapiens, UniProt P49760)", "experimental": "as §1"}, "CaMK4": {"molecular_target": "CaMK4 (Homo sapiens, UniProt Q16566)", "experimental": "as §1"}, "EGFR(L858R)": {"molecular_target": "T1, EGFR(L858R) (Homo sapiens, UniProt P00533, L858R)", "T1 construct": "purchased Carna Biosciences", "T1 sequence (P00533 25-1210 L858R)": "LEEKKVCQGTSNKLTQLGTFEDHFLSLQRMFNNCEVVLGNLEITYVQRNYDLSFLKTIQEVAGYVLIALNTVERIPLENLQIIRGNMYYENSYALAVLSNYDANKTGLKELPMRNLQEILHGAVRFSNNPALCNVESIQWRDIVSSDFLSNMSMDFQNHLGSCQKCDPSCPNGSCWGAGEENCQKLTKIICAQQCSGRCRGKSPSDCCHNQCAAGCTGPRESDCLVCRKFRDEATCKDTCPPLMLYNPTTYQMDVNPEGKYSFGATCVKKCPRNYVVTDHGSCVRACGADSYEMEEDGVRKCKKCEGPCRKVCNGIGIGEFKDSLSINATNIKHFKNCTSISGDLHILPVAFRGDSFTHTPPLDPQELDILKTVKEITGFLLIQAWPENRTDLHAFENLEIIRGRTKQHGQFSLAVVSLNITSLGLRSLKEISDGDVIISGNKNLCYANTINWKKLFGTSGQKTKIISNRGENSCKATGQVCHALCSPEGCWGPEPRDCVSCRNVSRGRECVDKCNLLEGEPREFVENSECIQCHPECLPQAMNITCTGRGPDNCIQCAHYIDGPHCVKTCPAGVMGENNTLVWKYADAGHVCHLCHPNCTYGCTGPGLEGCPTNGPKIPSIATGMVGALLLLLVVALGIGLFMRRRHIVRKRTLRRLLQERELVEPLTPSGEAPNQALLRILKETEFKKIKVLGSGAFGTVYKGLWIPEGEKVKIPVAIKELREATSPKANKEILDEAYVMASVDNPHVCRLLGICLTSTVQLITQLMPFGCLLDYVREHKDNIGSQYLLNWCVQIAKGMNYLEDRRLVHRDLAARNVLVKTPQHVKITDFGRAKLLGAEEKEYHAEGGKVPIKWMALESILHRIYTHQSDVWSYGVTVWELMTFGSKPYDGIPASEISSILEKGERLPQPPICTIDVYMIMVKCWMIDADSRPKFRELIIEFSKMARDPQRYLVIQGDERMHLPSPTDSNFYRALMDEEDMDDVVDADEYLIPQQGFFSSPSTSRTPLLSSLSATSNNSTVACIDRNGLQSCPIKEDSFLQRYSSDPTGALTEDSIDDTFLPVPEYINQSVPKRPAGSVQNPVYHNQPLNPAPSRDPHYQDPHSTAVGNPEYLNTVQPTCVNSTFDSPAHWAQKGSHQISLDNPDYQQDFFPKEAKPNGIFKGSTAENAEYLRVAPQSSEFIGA", "experimental": "as §1"}, "EGFR(L861Q)": {"molecular_target": "T2, EGFR(L861Q) (Homo sapiens, UniProt P00533, L861Q)", "T2 construct": "purchased Carna Biosciences", "experimental": "as §1"}, "EGFR(T790M)": {"molecular_target": "T3, EGFR(T790M) (Homo sapiens, UniProt P00533, T790M)", "T3 construct": "purchased Carna Biosciences", "experimental": "as §1"}, "EGFR(d746-750)": {"molecular_target": "T4, EGFR(d746-750) (Homo sapiens, UniProt P00533, DEL746-750)", "T4 construct": "purchased Carna Biosciences", "T4 sequence (P00533 with tags, fused parts or gaps DEL746-750 limits assumed)": "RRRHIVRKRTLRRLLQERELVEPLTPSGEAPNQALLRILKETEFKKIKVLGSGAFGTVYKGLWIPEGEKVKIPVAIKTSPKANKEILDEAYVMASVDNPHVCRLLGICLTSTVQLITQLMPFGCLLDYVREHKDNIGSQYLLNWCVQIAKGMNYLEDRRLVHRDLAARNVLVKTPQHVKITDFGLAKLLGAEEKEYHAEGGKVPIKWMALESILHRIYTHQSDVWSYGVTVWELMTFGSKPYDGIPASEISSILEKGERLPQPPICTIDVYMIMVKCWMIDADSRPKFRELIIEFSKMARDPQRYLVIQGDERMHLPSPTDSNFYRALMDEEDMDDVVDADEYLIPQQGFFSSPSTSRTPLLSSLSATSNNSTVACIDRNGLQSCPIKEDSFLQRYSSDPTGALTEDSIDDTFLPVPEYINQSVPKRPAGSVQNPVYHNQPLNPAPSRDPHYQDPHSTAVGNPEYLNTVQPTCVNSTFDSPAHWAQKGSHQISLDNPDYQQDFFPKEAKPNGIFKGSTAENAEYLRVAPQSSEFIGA", "experimental": "as §1"}, "EPHA2": {"molecular_target": "EPHA2 (Homo sapiens, UniProt P29317)", "experimental": "as §1"}, "EPHA5": {"molecular_target": "EPHA5 (Homo sapiens, UniProt P54756)", "experimental": "as §1"}, "EPHA8": {"molecular_target": "T5, EPHA8 (Homo sapiens, UniProt P29322)", "T5 construct": "purchased Carna Biosciences", "experimental": "as §1"}, "Erk1": {"molecular_target": "Erk1 (Homo sapiens, UniProt P27361)", "sequence (P27361 whole entry)": "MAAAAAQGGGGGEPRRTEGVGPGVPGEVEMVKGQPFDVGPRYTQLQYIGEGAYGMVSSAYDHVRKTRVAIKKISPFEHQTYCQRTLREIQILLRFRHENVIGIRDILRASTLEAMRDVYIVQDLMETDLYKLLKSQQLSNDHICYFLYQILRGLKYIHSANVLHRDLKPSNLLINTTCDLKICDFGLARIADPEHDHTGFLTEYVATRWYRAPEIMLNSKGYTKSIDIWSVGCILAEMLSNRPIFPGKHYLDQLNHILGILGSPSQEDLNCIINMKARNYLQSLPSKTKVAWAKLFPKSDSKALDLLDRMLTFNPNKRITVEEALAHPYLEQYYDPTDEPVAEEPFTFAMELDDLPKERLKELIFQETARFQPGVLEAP", "experimental": "as §1"}, "Erk2": {"molecular_target": "Erk2 (Homo sapiens, UniProt P28482)", "experimental": "as §1"}, "Erk5": {"molecular_target": "T6, Erk5 (Homo sapiens, UniProt Q13164)", "T6 construct": "purchased Carna Biosciences", "experimental": "as §1"}, "FER": {"molecular_target": "T7, FER (Homo sapiens, UniProt P16591)", "T7 construct": "purchased Carna Biosciences", "experimental": "as §1"}, "FLT1": {"molecular_target": "T8, FLT1 (Homo sapiens, UniProt P17948)", "T8 construct": "purchased Carna Biosciences", "T8 sequence (P17948 27-1338)": "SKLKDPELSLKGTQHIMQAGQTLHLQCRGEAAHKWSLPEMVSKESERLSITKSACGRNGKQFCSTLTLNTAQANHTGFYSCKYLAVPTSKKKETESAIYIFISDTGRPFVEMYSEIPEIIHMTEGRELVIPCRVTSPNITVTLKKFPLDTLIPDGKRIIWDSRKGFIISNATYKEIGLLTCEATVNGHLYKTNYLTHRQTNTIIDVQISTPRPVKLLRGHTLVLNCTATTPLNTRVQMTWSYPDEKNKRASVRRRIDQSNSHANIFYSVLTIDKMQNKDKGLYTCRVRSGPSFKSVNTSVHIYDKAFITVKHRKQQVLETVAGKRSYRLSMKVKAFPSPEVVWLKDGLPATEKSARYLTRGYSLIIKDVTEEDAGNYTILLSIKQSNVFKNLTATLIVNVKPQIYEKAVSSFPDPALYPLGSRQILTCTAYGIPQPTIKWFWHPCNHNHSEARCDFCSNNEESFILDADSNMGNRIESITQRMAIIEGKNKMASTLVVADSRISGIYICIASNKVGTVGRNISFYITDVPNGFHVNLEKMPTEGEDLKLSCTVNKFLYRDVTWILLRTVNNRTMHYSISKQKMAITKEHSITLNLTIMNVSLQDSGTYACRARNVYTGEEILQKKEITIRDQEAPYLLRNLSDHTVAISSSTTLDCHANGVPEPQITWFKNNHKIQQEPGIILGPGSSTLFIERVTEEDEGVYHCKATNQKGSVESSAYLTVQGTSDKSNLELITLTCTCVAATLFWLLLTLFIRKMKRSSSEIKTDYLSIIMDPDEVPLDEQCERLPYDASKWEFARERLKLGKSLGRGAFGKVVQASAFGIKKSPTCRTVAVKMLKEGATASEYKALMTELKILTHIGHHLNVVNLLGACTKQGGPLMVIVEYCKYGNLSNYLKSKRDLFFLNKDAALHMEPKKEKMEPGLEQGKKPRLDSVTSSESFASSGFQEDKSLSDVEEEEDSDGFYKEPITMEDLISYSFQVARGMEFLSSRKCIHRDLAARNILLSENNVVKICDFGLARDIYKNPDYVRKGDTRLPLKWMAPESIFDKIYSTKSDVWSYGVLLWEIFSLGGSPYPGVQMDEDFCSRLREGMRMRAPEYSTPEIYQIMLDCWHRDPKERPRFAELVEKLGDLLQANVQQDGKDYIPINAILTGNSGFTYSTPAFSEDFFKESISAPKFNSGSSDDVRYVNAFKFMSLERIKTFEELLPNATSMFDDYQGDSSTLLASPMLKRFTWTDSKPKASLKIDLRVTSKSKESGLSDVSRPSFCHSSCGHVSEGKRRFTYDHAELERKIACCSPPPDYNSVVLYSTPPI", "experimental": "as §1"}, "FLT3": {"molecular_target": "T9, FLT3 (Homo sapiens, UniProt P36888)", "T9 construct": "purchased Carna Biosciences", "experimental": "as §1"}, "GSK3α": {"molecular_target": "GSK3α (Homo sapiens, UniProt P49840)", "experimental": "as §1"}, "IGF1R": {"molecular_target": "T10, IGF1R (Homo sapiens, UniProt P08069)", "T10 construct": "purchased Carna Biosciences", "experimental": "as §1"}, "ITK": {"molecular_target": "T11, ITK (Homo sapiens, UniProt Q08881)", "T11 construct": "purchased Carna Biosciences", "experimental": "as §1"}, "JAK1": {"molecular_target": "T12, JAK1 (Homo sapiens, UniProt P23458)", "T12 construct": "purchased Carna Biosciences", "experimental": "as §1"}, "NEK1": {"molecular_target": "T13, NEK1 (Homo sapiens, UniProt Q96PY6)", "T13 construct": "purchased Carna Biosciences", "experimental": "as §1"}, "NEK6": {"molecular_target": "T14, NEK6 (Homo sapiens, UniProt Q9HC98)", "T14 construct": "purchased Carna Biosciences", "experimental": "as §1"}, "PDGFRα": {"molecular_target": "T15, PDGFRα (Homo sapiens, UniProt P16234)", "T15 construct": "purchased Carna Biosciences", "experimental": "as §1"}, "PIM2": {"molecular_target": "PIM2 (Homo sapiens, UniProt Q9P1W9)", "experimental": "as §1"}, "PLK1": {"molecular_target": "PLK1 (Homo sapiens, UniProt P53350)", "experimental": "as §1"}, "PYK2": {"molecular_target": "T16, PYK2 (Homo sapiens, UniProt Q14289)", "T16 construct": "purchased Carna Biosciences", "experimental": "as §1"}, "RET(M918T)": {"molecular_target": "T17, RET(M918T) (Homo sapiens, UniProt P07949, M918T)", "T17 construct": "purchased Carna Biosciences", "experimental": "as §1"}, "RET(Y791F)": {"molecular_target": "T18, RET(Y791F) (Homo sapiens, UniProt P07949, Y791F)", "T18 construct": "purchased Carna Biosciences", "experimental": "as §1"}, "ROCK1": {"molecular_target": "ROCK1 (Homo sapiens, UniProt Q13464)", "experimental": "as §1"}, "RON": {"molecular_target": "T19, RON (Homo sapiens, UniProt Q04912)", "T19 construct": "purchased Carna Biosciences", "experimental": "as §1"}, "RSK4": {"molecular_target": "T20, RSK4 (Homo sapiens, UniProt Q9UK32)", "T20 construct": "purchased Carna Biosciences", "T20 sequence (Q9UK32 whole entry)": "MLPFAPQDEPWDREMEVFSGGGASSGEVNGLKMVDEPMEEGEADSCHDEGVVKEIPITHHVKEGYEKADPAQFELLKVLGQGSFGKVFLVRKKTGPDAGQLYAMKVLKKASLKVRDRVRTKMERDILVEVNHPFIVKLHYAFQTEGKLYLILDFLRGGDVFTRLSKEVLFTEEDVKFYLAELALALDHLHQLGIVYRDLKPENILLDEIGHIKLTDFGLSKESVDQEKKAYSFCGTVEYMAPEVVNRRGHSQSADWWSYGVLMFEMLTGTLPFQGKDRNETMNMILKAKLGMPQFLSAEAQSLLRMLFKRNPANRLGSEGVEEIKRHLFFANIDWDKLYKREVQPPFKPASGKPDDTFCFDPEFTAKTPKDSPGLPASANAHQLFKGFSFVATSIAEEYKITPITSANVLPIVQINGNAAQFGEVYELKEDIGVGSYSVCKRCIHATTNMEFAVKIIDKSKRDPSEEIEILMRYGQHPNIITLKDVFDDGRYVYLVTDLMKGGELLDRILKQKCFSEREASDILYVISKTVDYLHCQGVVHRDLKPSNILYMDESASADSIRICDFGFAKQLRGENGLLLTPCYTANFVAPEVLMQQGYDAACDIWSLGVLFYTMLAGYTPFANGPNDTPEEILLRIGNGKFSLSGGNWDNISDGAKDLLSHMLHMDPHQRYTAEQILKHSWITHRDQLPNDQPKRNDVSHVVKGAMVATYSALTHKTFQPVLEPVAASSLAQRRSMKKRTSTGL", "experimental": "as §1"}, "SYK": {"molecular_target": "SYK (Homo sapiens, UniProt P43405)", "experimental": "as §1"}, "TIE2": {"molecular_target": "T21, TIE2 (Homo sapiens, UniProt Q02763)", "T21 construct": "purchased Carna Biosciences", "experimental": "as §1"}, "TNIK": {"molecular_target": "T22, TNIK (Homo sapiens, UniProt Q9UKE5)", "T22 construct": "purchased Carna Biosciences", "experimental": "as §1"}, "p38α": {"molecular_target": "p38α (Homo sapiens, UniProt Q16539)", "sequence (Q16539 whole entry)": "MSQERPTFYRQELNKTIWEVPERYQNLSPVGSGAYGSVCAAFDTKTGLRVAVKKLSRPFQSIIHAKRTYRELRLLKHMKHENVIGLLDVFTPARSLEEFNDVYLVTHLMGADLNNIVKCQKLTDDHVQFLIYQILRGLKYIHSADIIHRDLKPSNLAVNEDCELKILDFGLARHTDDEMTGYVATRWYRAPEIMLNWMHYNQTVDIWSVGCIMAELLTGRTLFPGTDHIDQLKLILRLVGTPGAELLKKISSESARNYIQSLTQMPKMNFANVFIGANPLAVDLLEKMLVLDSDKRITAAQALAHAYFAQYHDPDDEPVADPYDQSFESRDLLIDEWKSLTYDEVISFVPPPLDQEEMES", "experimental": "as §1"}}}
{"smiles": "C[C@@H](N)COc1ccc(-c2cnc3ccc(N[C@H](C)c4cccc(F)c4)nn23)cc1.O=C(O)CCCCC(=O)O", "note": "[DS-6051b]", "values": [{"measurement": "inhibition at 0.2 µM", "setting": "AurB", "value": -12.2, "unit": "%"}, {"measurement": "inhibition at 0.2 µM", "setting": "BLK", "value": 0.178, "unit": "%"}, {"measurement": "inhibition at 0.2 µM", "setting": "BRSK1", "value": -4.8, "unit": "%"}, {"measurement": "inhibition at 0.2 µM", "setting": "CDK2/CycA2", "value": 2.3, "unit": "%"}, {"measurement": "inhibition at 0.2 µM", "setting": "CDK4/CycD3", "value": -0.7, "unit": "%"}, {"measurement": "inhibition at 0.2 µM", "setting": "CDK7/CycH/MAT1", "value": -0.3, "unit": "%"}, {"measurement": "inhibition at 0.2 µM", "setting": "CK1α", "value": -1, "unit": "%"}, {"measurement": "inhibition at 0.2 µM", "setting": "CK2α1/β", "value": -12.2, "unit": "%"}, {"measurement": "inhibition at 0.2 µM", "setting": "CLK2", "value": -1.1, "unit": "%"}, {"measurement": "inhibition at 0.2 µM", "setting": "CaMK4", "value": -3.3, "unit": "%"}, {"measurement": "inhibition at 0.2 µM", "setting": "EGFR(L858R)", "value": 0.7, "unit": "%"}, {"measurement": "inhibition at 0.2 µM", "setting": "EGFR(L861Q)", "value": -3.6, "unit": "%"}, {"measurement": "inhibition at 0.2 µM", "setting": "EGFR(T790M)", "value": -1.6, "unit": "%"}, {"measurement": "inhibition at 0.2 µM", "setting": "EGFR(d746-750)", "value": -3.4, "unit": "%"}, {"measurement": "inhibition at 0.2 µM", "setting": "EPHA2", "value": -2.2, "unit": "%"}, {"measurement": "inhibition at 0.2 µM", "setting": "EPHA5", "value": -9, "unit": "%"}, {"measurement": "inhibition at 0.2 µM", "setting": "EPHA8", "value": -9.1, "unit": "%"}, {"measurement": "inhibition at 0.2 µM", "setting": "Erk1", "value": -4.9, "unit": "%"}, {"measurement": "inhibition at 0.2 µM", "setting": "Erk2", "value": -3.8, "unit": "%"}, {"measurement": "inhibition at 0.2 µM", "setting": "Erk5", "value": 5.2, "unit": "%"}, {"measurement": "inhibition at 0.2 µM", "setting": "FER", "value": 5.5, "unit": "%"}, {"measurement": "inhibition at 0.2 µM", "setting": "FLT1", "value": -3.1, "unit": "%"}, {"measurement": "inhibition at 0.2 µM", "setting": "FLT3", "value": 18.8, "unit": "%"}, {"measurement": "inhibition at 0.2 µM", "setting": "GSK3α", "value": -3.4, "unit": "%"}, {"measurement": "inhibition at 0.2 µM", "setting": "IGF1R", "value": 3.4, "unit": "%"}, {"measurement": "inhibition at 0.2 µM", "setting": "ITK", "value": -2.5, "unit": "%"}, {"measurement": "inhibition at 0.2 µM", "setting": "JAK1", "value": -2, "unit": "%"}, {"measurement": "inhibition at 0.2 µM", "setting": "NEK1", "value": -5.2, "unit": "%"}, {"measurement": "inhibition at 0.2 µM", "setting": "NEK6", "value": -0.6, "unit": "%"}, {"measurement": "inhibition at 0.2 µM", "setting": "PDGFRα", "value": 5.7, "unit": "%"}, {"measurement": "inhibition at 0.2 µM", "setting": "PIM2", "value": -14, "unit": "%"}, {"measurement": "inhibition at 0.2 µM", "setting": "PLK1", "value": -9.2, "unit": "%"}, {"measurement": "inhibition at 0.2 µM", "setting": "PYK2", "value": 8.9, "unit": "%"}, {"measurement": "inhibition at 0.2 µM", "setting": "RET(M918T)", "value": 0.9, "unit": "%"}, {"measurement": "inhibition at 0.2 µM", "setting": "RET(Y791F)", "value": -4.3, "unit": "%"}, {"measurement": "inhibition at 0.2 µM", "setting": "ROCK1", "value": -4.5, "unit": "%"}, {"measurement": "inhibition at 0.2 µM", "setting": "RON", "value": 9.2, "unit": "%"}, {"measurement": "inhibition at 0.2 µM", "setting": "RSK4", "value": -5.4, "unit": "%"}, {"measurement": "inhibition at 0.2 µM", "setting": "SYK", "value": -2.5, "unit": "%"}, {"measurement": "inhibition at 0.2 µM", "setting": "TIE2", "value": -2.2, "unit": "%"}, {"measurement": "inhibition at 0.2 µM", "setting": "TNIK", "value": -3, "unit": "%"}, {"measurement": "inhibition at 0.2 µM", "setting": "p38α", "value": -6.7, "unit": "%"}]}
